Structures can show the parent of a compound that is named as a salt.
What was measured:
Format in all cases: in vivo, dog
NT-ProBNP = assay: Plasma NT-proBNP (competitive ELISA), dose escalation study
Procedure: (§1) Eight heart failure dogs described in Example 1 were used. Seven of 8 dogs underwent two studies, one with active drug GP-531 tartrate and one with vehicle (placebo) and 1 of 8 dogs underwent only one active drug GP-531 study. The order of active drug and placebo was randomized and performed about one week apart. In 6 of 8 dogs, after baseline hemodynamic, and ventriculographic measurements, vehicle was administered as a continuous intravenous infusion for one hour. At the end of one hour, the active drug GP-531 tartrate was administered in 3 escalating dose of continuous intravenous infusion with each dose maintained for one hour. At the end of the last drug dose, infusion was stopped and a washout period of one hour was instituted. The same infusion rates and times between doses were used when vehicle studies were performed. At the end of each hour, hemodynamic and angiographic measurements were made. Venous blood samples were obtained at baseline and at one hour after each dose. Blood samples (at least 10 mL) were centrifuged at 3000 rpm for 10 minutes and plasma withdrawn and placed in cryostorage tubes and stored upright at −20° C. for future use. In 2 of 8 dogs, active drug was administered as bolus followed by a constant infusion for 3 hours as noted below.
(§2) Plasma biomarkers were measured in Groups I and II. Troponin I (TnI) was determined in plasma based on the principle of the double antibody sandwich enzyme-linked immunosorbent assay (ELISA) (Hirano, T., et al., Immunol Today 1990, 11:443-449) and n-terminal brain natriuretic peptide (NT-pro-BNP) based on competitive ELISA (Bonow, R. O. Circulation 1996, 93:1946-1950). Both biomarkers were assayed using commercially available assay kits. Kits for NT proBNP and TnI were purchased from ALPCO Diagnostics, Salem, N.H. Using standard curves and software, the concentration of each biomarker was expressed as ng/ml for TnI and fmol/ml for NT-proBNP.

TnI = assay: Plasma troponin I (sandwich ELISA), dose escalation study
Procedure: as §1, §2

[1] = tested on: dogs with advanced heart failure; assay: GP-531 infusion simultaneously with 8-SPT (non-selective adenosine antagonist); conditions: for Cardiac output (CO) / Heart rate (HR) / LV end-diastolic pressure (LVEDP) / LV end-diastolic volume (EDV) / LV end-systolic volume (ESV) / Mean aortic pressure (mAoP) / Stroke volume (SV) / Systemic vascular resistance (SVR): GP-531 infusion simultaneously with 8-SPT infusion
Procedure: At the completion of the 6 hour constant infusion study, a secondary study was performed in 3 heart failure dogs to assess the effects of GP-531 in the presence of the non-selective adenosine antagonist 8-p-sulfophenyl theophylline (8-SPT). After baseline hemodynamic and ventriculographic measurements, 8-SPT was administered as 10 mg/kg intravenous bolus followed by 10 mg/kg/hr constant infusion for 3 hours. Infusion of GP-531 tartrate was initiated simultaneously with infusion of 8-SPT at a dose of 10 μg/kg/hr and also maintained for 3 hours. Hemodynamic and ventriculographic measurements were made at 1, 2 and 3 hours.
All hemodynamic measurements were made during left and right heart catheterizations in anesthetized dogs at each specified study time point. Heart rate (HR), mean aortic pressure (mAoP), LV end-diastolic pressure (LVEDP), stroke volume (SV), cardiac output (CO) and systemic vascular resistance (SVR) were measured at each study time point. Left ventriculograms were performed during cardiac catheterization after completion of the hemodynamic measurements. Left ventriculograms were obtained with the dog placed on its right side and digitally recorded during the injection of 20 ml of contrast material (RENO-M-60 Squibb, Princeton, N.J.). Correction for image magnification was made using a radiopaque grid placed at the level of the LV. LV end-systolic (ESV) and end-diastolic volumes (EDV) were calculated from angiographic silhouettes using the area length method (Dodge H T, et al, Am J Cardiol. 1966; 18:10-24.). Premature beats and post-extra-systolic beats were excluded from the analysis. LV ejection fraction (EF) was calculated as the ratio of the difference of end-diastolic and end-systolic volumes to end-diastolic volume times 100, as described above.
Within group hemodynamic and angiographic data were analyzed using repeated measures analysis of variance (ANOVA) with alpha set at 0.05. If the overall ANOVA was significant, then pairwise comparisons between baseline and drug or placebo dose/time point were performed using the Student-Newman-Keuls test. For this test, a p-value of <0.05 was considered significant. All data are reported as the mean±SEM.

[2] = Group I HF dogs n=3, 1 h washout after 30/100/300 μg/kg/min
[3] = Group I HF dogs n=3, iv 30 μg/kg/min, 1 h
[4] = Group I HF dogs n=3, iv 100 μg/kg/min, 1 h
[5] = Group I HF dogs n=3, iv 300 μg/kg/min, 1 h
[6] = Group II HF dogs n=3, 1 h washout after 3/10/30 μg/kg/min
[7] = Group II HF dogs n=3, iv 3 μg/kg/min, 1 h
[8] = Group II HF dogs n=3, iv 10 μg/kg/min, 1 h
[9] = Group II HF dogs n=3, iv 30 μg/kg/min, 1 h
[10] = Group I HF dogs, all doses (30, 100, 300 μg/kg/min), vs baseline
[11] = HF dogs n=3, administered simultaneously with 8-SPT, 3 h

NC(=O)c1ncn(C2OC(CNCc3ccccc3)C(O)C2O)c1N [GP-531, 5-amino-1-β-D-(5-benzylamino-5-deoxy-1-β-D-ribofuranosyl)imidazole-4 carboxamide] was tested. Which “Plasma NT-ProBNP” value (NT-ProBNP; [2]) did it give?
Its value is 204 ± 5 fmol/mL.

What about the “Plasma NT-ProBNP” value (NT-ProBNP; [3]) of the same molecule?
The value was 128 ± 23 fmol/mL.

What about the “Plasma NT-ProBNP” value (NT-ProBNP; [4]) of the same molecule?
The value was 131 ± 8 fmol/mL.

And the “Plasma NT-ProBNP” value (NT-ProBNP; [5])?
The value was 121 ± 13 fmol/mL.

And the “Plasma NT-ProBNP” value (NT-ProBNP; [6])?
The value was 179 ± 6 fmol/mL.

And the “Plasma NT-ProBNP” value (NT-ProBNP; [7])?
The value was 225 ± 34 fmol/mL.

And the “Plasma NT-ProBNP” value (NT-ProBNP; [8])?
The value was 155 ± 1 fmol/mL.

And the “Plasma NT-ProBNP” value (NT-ProBNP; [9])?
The value was 123 ± 21 fmol/mL.

And the “Plasma TnI” value (TnI; [2])?
Its value is 0.36 ± 0.03 pg/mL.

What about the “Plasma TnI” value (TnI; [3]) of the same molecule?
Its value is 0.17 ± 0.03 pg/mL.

And the “Plasma TnI” value (TnI; [4])?
The value was 0.13 ± 0.02 pg/mL.

And the “Plasma TnI” value (TnI; [5])?
Its value is 0.15 ± 0.05 pg/mL.

And the “Plasma TnI” value (TnI; [6])?
The value was 0.31 ± 0.05 pg/mL.

And the “Plasma TnI” value (TnI; [7])?
The value was 0.51 ± 0.05 pg/mL.

What about the “Plasma TnI” value (TnI; [8]) of the same molecule?
The value was 0.50 ± 0.15 pg/mL.

What about the “Plasma TnI” value (TnI; [9]) of the same molecule?
The value was 0.19 ± 0.05 pg/mL.

What about the “Cardiac output (CO)” value ([1]; HF dogs n=3, 1 h) of the same molecule?
The value was 1.51 ± 0.08 L/min.

And the “Heart rate (HR)” value ([1]; HF dogs n=3, 1 h)?
Its value is 80 ± 4 beats/min.

And the “LV end-diastolic pressure (LVEDP)” value ([1]; HF dogs n=3, 1 h)?
The value was 16 ± 0.0 mmHg.

What about the “LV end-diastolic volume (EDV)” value ([1]; HF dogs n=3, 1 h) of the same molecule?
The value was 69 ± 3 mL.

And the “LV end-systolic volume (ESV)” value ([1]; HF dogs n=3, 1 h)?
The value was 50 ± 3 mL.

What about the “Mean aortic pressure (mAoP)” value ([1]; HF dogs n=3, 1 h) of the same molecule?
Its value is 97 ± 9 mmHg.

And the “Stroke volume (SV)” value ([1]; HF dogs n=3, 1 h)?
Its value is 19 ± 0.6 rnl.

What about the “Systemic vascular resistance (SVR)” value ([1]; HF dogs n=3, 1 h) of the same molecule?
The value was 5089 ± 203 dynes-sec-cm^−5.

And the “Cardiac output (CO)” value ([1]; HF dogs n=3, 2 h)?
Its value is 1.57 ± 0.15 L/min.

And the “Heart rate (HR)” value ([1]; HF dogs n=3, 2 h)?
The value was 81 ± 5 beats/min.

What about the “LV end-diastolic pressure (LVEDP)” value ([1]; HF dogs n=3, 2 h) of the same molecule?
The value was 16 ± 0.3 mmHg.

What about the “LV end-diastolic volume (EDV)” value ([1]; HF dogs n=3, 2 h) of the same molecule?
The value was 69 ± 3 mL.

What about the “LV end-systolic volume (ESV)” value ([1]; HF dogs n=3, 2 h) of the same molecule?
Its value is 49 ± 2 mL.

And the “Mean aortic pressure (mAoP)” value ([1]; HF dogs n=3, 2 h)?
The value was 82 ± 6 mmHg.

What about the “Stroke volume (SV)” value ([1]; HF dogs n=3, 2 h) of the same molecule?
The value was 19 ± 0.9 rnl.

What about the “Systemic vascular resistance (SVR)” value ([1]; HF dogs n=3, 2 h) of the same molecule?
Its value is 4191 ± 84 dynes-sec-cm^−5.

And the “Cardiac output (CO)” value ([1]; HF dogs n=3, 3 h)?
The value was 1.53 ± 0.05 L/min.

And the “Heart rate (HR)” value ([1]; HF dogs n=3, 3 h)?
Its value is 81 ± 6 beats/min.

And the “LV end-diastolic pressure (LVEDP)” value ([1]; HF dogs n=3, 3 h)?
The value was 16 ± 0.3 mmHg.

And the “LV end-diastolic volume (EDV)” value ([1]; HF dogs n=3, 3 h)?
Its value is 68 ± 3 mL.

What about the “LV end-systolic volume (ESV)” value ([1]; HF dogs n=3, 3 h) of the same molecule?
The value was 49 ± 3 mL.

What about the “Mean aortic pressure (mAoP)” value ([1]; HF dogs n=3, 3 h) of the same molecule?
Its value is 82 ± 7 mmHg.

And the “Stroke volume (SV)” value ([1]; HF dogs n=3, 3 h)?
Its value is 19 ± 1.0 rnl.

What about the “Systemic vascular resistance (SVR)” value ([1]; HF dogs n=3, 3 h) of the same molecule?
Its value is 4297 ± 253 dynes-sec-cm^−5.

And the “Benefits on LV function in conjunction with 8-SPT” value ([1]; HF dogs, administered in conjunction with 8-SPT, non-selective adenosine receptor antagonist)?
Its value is “abolished”.

With NC(=O)c1ncn(C2OC(CNCc3ccccc3)C(O)C2O)c1N (stereo not drawn) [GP-531 tartrate] as the molecule, how does the “Effect on plasma NT-Pro-BNP” value (NT-ProBNP; [10]) read?
Its value is “decreased significantly”.

What about the “Effect on plasma NT-proBNP” value (NT-ProBNP; Group II HF dogs, 3, 10, 30 μg/kg/min, significance only at 30 μg/kg/min) of the same molecule?
Its value is “tended to decrease with escalating doses”.

And the “Effect on plasma TnI” value (TnI; [10])?
The value was “decreased significantly”.

And the “Effect on plasma TnI” value (TnI; Group II HF dogs, 30 μg/kg/min, not statistically significant)?
The value was “tended to decrease at the highest dose”.

And the “Effect on CO” value [1, 11]?
Its value is “no effects”.

And the “Effect on EDV” value [1, 11]?
The value was “no effects”.

And the “Effect on EF” value [1, 11]?
The value was “no effects”.

What about the “Effect on ESV” value [1, 11] of the same molecule?
The value was “no effects”.

And the “Effect on HR” value [1, 11]?
The value was “no effects”.

And the “Effect on LVEDP” value [1, 11]?
Its value is “no effects”.

And the “Effect on SV” value [1, 11]?
The value was “no effects”.

What about the “Effect on SVR” value [1, 11] of the same molecule?
The value was “no effects”.

And the “Effect on mAoP” value [1, 11]?
The value was “no effects”.

Reference: patent US9492468B2, “Methods and compositions for treatment of acute heart failure” (PERICOR THERAPEUTICS, INC., priority 2008, dated 2016)
